From the Bradley open melting point set (2014)
Values joined by “and” are separate entries in the source; they are usually repeats but may differ in a detail not shown here. Equal values may be shown once. Where a name gives a salt, the structure may show the parent alone.

Row | SMILES | melting point
1 | CCCCCCCCCC=O [decanal] | -5 °C
2 | CCCCCCCCCCc1ccccc1 [decylbenzene] | -14 °C
3 | CC(CN1CCOCC1)C(C(=O)N1CCCC1)(c1ccccc1)c1ccccc1 (centres undefined) [dextromoramide] | 180 °C
4 | CCCCOC(=O)c1ccccc1C(=O)OCCCC [di-n-butyl phthalate] | -35 °C
5 | CCCCSCCCC [di-n-butyl sulfide] | -80 °C
6 | CCCCCCCCSCCCCCCCC [di-n-octyl sulfide] | 1 °C
7 | c1ccc2c(c1)sc1ccccc12 [dibenzothiophene] | 99 °C
8 | BrCBr [dibromomethane] | -53 °C
9 | N#CNC(=N)N [dicyandiamide] | 210 °C
10 | C1CCC(C2CCCCC2)CC1 [dicyclohexyl] | 4 °C
11 | ClC5(Cl)[C@]3(Cl)C(\Cl)=C(\Cl)[C@@]5(Cl)[C@H]4[C@H]1C[C@H]([C@@H]2O[C@H]12)[C@@H]34 [dieldrin] | 175 °C
12 | Cl\C1=C(/Cl)C2(Cl)C3C4CC(C3C1(Cl)C2(Cl)Cl)C5OC45 (centres undefined) [dieldrin] | 176 °C
13 | CCOCC [diethyl ether] | -116 °C
14 | CCOP(O)OCC [diethyl phosphite] | -70 °C
15 | CCOC(=O)c1ccccc1C(=O)OCC [diethyl phthalate] | -64 °C
16 | CCNCC [diethylamine] | -50 °C
17 | COCCOCCOC [diethylene glycol dimethyl ether] | -64 °C
18 | OCCOCCO [diethylene glycol] | -10 °C
19 | CC/C(=C(/CC)c1ccc(O)cc1)c1ccc(O)cc1 [diethylstilbestrol] | 178 °C
20 | OCCN1CCCCC1C(c1ccccc1)c1ccccc1 (centres undefined) [diphemethoxidine] | 106 °C
21 | O=C(Oc1ccccc1)c1ccccc1C(=O)Oc1ccccc1 [diphenyl phthalate] | 75 °C
22 | O=C(CCC(=O)Oc1ccccc1)Oc1ccccc1 [diphenyl succinate] | 88 °C
23 | O=C(Cl)N(c1ccccc1)c1ccccc1 [diphenylcarbamyl chloride] | 84 °C
24 | c1ccc(Cc2ccccc2)cc1 [diphenylmethane] [listing 1 of 2 here] | 90.5 °C

Row | SMILES | melting point
25 | c1ccc(Cc2ccccc2)cc1 [diphenylmethane] [listing 2 of 2 here] | 24 °C
26 | O=[PH](c1ccccc1)c1ccccc1 [diphenylphosphine oxide] | 54 °C
27 | CCCCCCCCCCCC#N [dodecanonitrile] | 4 °C
28 | Cl\C1=C(/Cl)C2(Cl)C3C4CC(C3C1(Cl)C2(Cl)Cl)C5OC45 (centres undefined) [endrin] | 210 °C
29 | ClCC1CO1 (centres undefined) [epichlorohydrin] [listing 1 of 2 here] | -57 °C
30 | ClCC1CO1 (centres undefined) [epichlorohydrin] [listing 2 of 2 here] | -57.1 °C
31 | CCO [ethanol] | -114 °C
32 | CCOC(=O)c1ccc(-n2cccc2)cc1 [ethyl 4-(1-pyrrolyl)benzoate] | 75 °C
33 | CCOC(=O)Nc1cccc([N+](=O)[O-])c1[N+](=O)[O-] [ethyl (2,3-dinitrophenyl)carbamate] | 103 °C
34 | CCCCCCCCCCCCCCCCCC(=O)OCC [ethyl stearate] | 35 °C
35 | C=COCC [ethyl vinyl ether] | -115 °C
36 | CCOC(=O)c1ccccc1N [ethyl_2-aminobenzoate] | 14 °C
37 | C=CC(=O)OCC [ethyl_acrylate] | -71 °C
38 | CCOS(=O)(=O)c1ccc(C)cc1 [ethyl_p-toluenesulfonate] | 34 °C
39 | CCc1ccccc1 [ethylbenzene] | -95 °C
40 | CCB(O)O [ethylboronic acid] | 86 °C
41 | CCNc1nsc2ccccc12 [etisazol] | 78 °C
42 | CCOC(=O)c1cncn1C(C)c1ccccc1 (centres undefined) [etomidate] | 67 °C
43 | O=C1OC(=O)[C@H]2[C@@H]1[C@@H]1C=C[C@H]2O1 [exo-7-oxabicyclo[2.2.1]hept-5-ene-2,3-dicarboxylic anhydride] | 119 °C
44 | NC(N)=Nc1nc(CSCCC(N)=NS(N)(=O)=O)cs1 [famotidine] | 163 °C
45 | N#CC(CCc1ccc(Cl)cc1)(Cn1cncn1)c1ccccc1 (centres undefined) [fenbuconazole] | 125 °C
46 | O=C(O)CCC(=O)c1ccc(-c2ccccc2)cc1 [fenbufen] | 186 °C
47 | CCOC(=O)NCCOc1ccc(Oc2ccccc2)cc1 [fenoxycarb] | 53.5 °C

The next lines start with the values.

Row | melting point | SMILES
48 | -127 °C | C1CC1 [cyclopropane]
49 | 158 °C | Cc1ccccc1N1CCN(CCc2nnc3n2CCCC3)CC1 [dapiprazole]
50 | 174 °C | C[C@H](CCC(=O)O)[C@H]1CC[C@H]2[C@@H]3CC[C@@H]4C[C@H](O)CC[C@]4(C)[C@H]3C[C@H](O)[C@]12C [deoxycholic acid]
51 | -102 °C | CCCSCCC [di-n-propyl sulfide]
52 | 162 °C | O=c1[nH]cnc2c1ncn2[C@H]1CC[C@@H](CO)O1 [didanosine]
53 | 140 °C | CCOC(=O)c1sc2sc(C(=O)OCC)c(C)c2c1C [diethyl 3,4-dimethylthieno[2,3-b]thiophene-2,5-dicarboxylate]
54 | -43 °C | CCOC(=O)OCC [diethyl carbonate]
55 | -70 °C | CCOC(=O)C(=O)C(=O)OCC [diethyl ketomalonate]
56 | -50 °C | CCOC(=O)CC(=O)OCC [diethyl malonate]
57 | -104 °C | CCSCC [diethyl sulfide]
58 | -132 °C | CC[SiH2]CC [diethylsilane]
59 | 4 °C | CC(C)OC(=O)/N=N/C(=O)OC(C)C [diisopropyl azodicarboxylate]
60 | 90 °C | COC(=O)c1c(C)nn(C(=O)OC)c1C [dimethyl 3,5-dimethyl-1H-pyrazole-1,4-dicarboxylate]
61 | -19 °C | COC(=O)/C=CC(=O)OC [dimethyl maleate]
62 | -62 °C | COC(=O)CC(=O)OC [dimethyl malonate]
63 | 75 °C | COC(=O)c1ncoc1C(=O)OC [dimethyl oxazole-4,5-dicarboxylate]
64 | 162 °C | COC(=O)c1ccc(C(=O)OC)nc1 [dimethyl pyridine-2,5-dicarboxylate]
65 | 121 °C | COC(=O)c1cccc(C(=O)OC)n1 [dimethyl pyridine-2,6-dicarboxylate]
66 | 27 °C | COC(=O)CCCCCCCCC(=O)OC [dimethyl sebacate]

Row | melting point | SMILES
67 | 19 °C | COC(=O)CCC(=O)OC [dimethyl succinate]
68 | 110 °C | CS(C)(=O)=O [dimethyl sulfone]
69 | 142 °C | COC(=O)c1ccc(C(=O)OC)cc1 [dimethyl terephthalate]
70 | 157 °C | COC(=O)c1c(Cl)c(Cl)c(C(=O)OC)c(Cl)c1Cl [dimethyl tetrachloroterephthalate]
71 | 3 °C | COC(=O)OC [dimethyl_carbonate]
72 | -98 °C | CSC [dimethyl_sulfide]
73 | -61 °C | CN(C)C=O [dimethylformamide]
74 | 158 °C (2×) and 159 °C | CN(C)C(=O)Nc1ccc(Cl)c(Cl)c1 [diuron]
75 | 135 °C | CCC1OC(=O)C(C)C(OC2CC(C)(OC)C(O)C(C)O2)C(C)C(OC2OC(C)CC(N(C)C)C2O)C(C)(O)CC(C)C(=O)C(C)C(O)C1(C)O (centres undefined) [erythromycin]
76 | 141 °C | C#CC1(O)CCC2C3CCc4cc(O)ccc4C3CCC21C (centres undefined) [ethinylestradiol]
77 | 174 °C | CCOC(=O)c1sc(N)nc1C [ethyl 2-amino-4-methylthiazole-5-carboxylate]
78 | 92 °C | CCOC(=O)C(C#N)=C(SC)N(C)C [ethyl 2-cyano-3-(dimethylamino)-3-(methylthio)acrylate]
79 | 57 °C | CCOC(=O)c1csc(C)n1 [ethyl 2-methyl-1,3-thiazole-4-carboxylate]
80 | 150 °C | CCOC(=O)c1cc(O)c(O)c(O)c1 [ethyl 3,4,5-trihydroxybenzoate]
81 | 119 °C | CCOC(=O)C1=C(C)N=NC1C (centres undefined) [ethyl 3,5-dimethyl-1H-pyrazole-4-carboxylate]
82 | 125 °C | CCOC(=O)CCC(C)C1CCC2C3C(=O)C(Br)C4CC(OC(C)=O)CCC4(C)C3CC(OC(C)=O)C12C (centres undefined) [ethyl 3,12-bis(acetyloxy)-6-bromo-7-oxocholan-24-oate]
83 | 106 °C | CCOC(=O)c1c[nH]nc1N [ethyl 3-amino-1h-pyrazole-4-carboxylate]
84 | 89 °C | CCOC(=O)c1ccc(N)cc1 [ethyl 4-aminobenzoate]
85 | 47 °C | CCOC(=O)Cc1ccc(N)cc1 [ethyl 4-aminophenylacetate]

Row | melting point | SMILES
86 | 54 °C | CCOC(=O)c1ccc(Cl)c([N+](=O)[O-])c1 [ethyl 4-chloro-3-nitrobenzoate]
87 | 8 °C | CCOC(=O)c1ccc(OC)cc1 [ethyl 4-methoxybenzoate]
88 | 121 °C | CCOC(=O)c1cc(C)n(C2=CC(C)N=N2)n1 (centres undefined) [ethyl 5,5'-dimethyl-1'H-1,3'-bipyrazole-3-carboxylate]
89 | 67 °C | CCOC(=O)c1ccc2c(c1)no[n+]2[O-] [ethyl benzofuroxan-5-carboxylate]
90 | 59 °C | CCOC(=O)CNC(=O)c1ccccc1 [ethyl hippurate]
91 | -99 °C | CCOC(=O)CC(C)C [ethyl isovalerate]
92 | -25 °C | CCOC(=O)[C@H](C)O [ethyl l-lactate]
93 | 112 °C | CCOC(C)=NOc1ccc([N+](=O)[O-])cc1[N+](=O)[O-] [ethyl n-(2,4-dinitrophenoxy)acetimidate]
94 | 89 °C | CCOC(=O)c1ccc(N)cc1 [ethyl p-aminobenzoate]
95 | -73 °C | CCOC(=O)CC [ethyl propionate]
96 | 1 °C | CCOC(=O)c1ccccc1O [ethyl salicylate]
97 | -103 °C | CCCCOCC [ethyl_butyl_ether]
98 | -22 °C | CCOC(=O)CC#N [ethyl_cyanoacetate]
99 | 68 °C | CCOC(=O)c1ccccc1C#N [ethyl_o-cyanobenzoate]
100 | -73 °C | CCOC(=O)CC [ethyl_propionate]
101 | 116 °C | CCOC(=O)c1ccc(O)cc1 [ethylparaben]
102 | 4 °C | CC1(C)C(=O)[C@]2(C)CC[C@H]1C2 [fenchone]
103 | 134 °C | CN(C)C(=O)Nc1ccccc1 [fenuron]
104 | 68 °C | COc1ccccc1N1CCN(CCCC(=O)c2ccc(F)cc2)CC1 [fluanisone]
